Measured values reported in patent US20120219536A1, “PURINE-TARGETED DIAGNOSIS AND THERAPY OF WOUNDS” (Queensland University of Technology, priority 2009, published 2012).
Where two headings read alike, the source gives them in different places.

Experiments:
xanthine oxidase = molecular target: T1, xanthine oxidase (Homo sapiens, UniProt P47989); assay: Xanthine oxidase activity and inhibition in pooled chronic wound fluid (CWF), RP-HPLC; type: biochemical; details: pooled CWF retentate, 10 μmol/L allopurinol, 37° C., 2.5 hr
T1 construct: from tissue; host or cells: pooled chronic wound fluid (CWF), retentate of 3K ultrafiltration
Method: Additionally, samples were treated with allopurinol, a specific XO inhibitor, and the production of the metabolite oxypurinol determined at A254. Firstly, CWF was concentrated by centrifugation using nanosep 3K omega filters (PALL) at 10,000 g for 10 min at 4° C. The retentate was resuspended with 10 mM Tris-HCl buffer, pH 8.0 containing either 10 μmol/L of xanthine or allopurinol, then incubated at 37° C. for 2.5 hr in the ultrafiltration unit. After incubation, the reaction mixture was de-proteinised as per the manufacturer's instructions and the resulting filtrates analysed using reverse phase HPLC as previously outlined.
In further support of this finding, XO enzyme inhibition was assayed using a potent XO inhibitor, allopurinol. Allopurinol is rapidly metabolised by XO to generate the active metabolite, oxypurinol, which itself is an inhibitor of XO. […] Western blotting confirmed the presence of the enzyme in wound fluid (data not shown).

mice = details: cited from earlier work

T1 sequence (P47989 whole entry): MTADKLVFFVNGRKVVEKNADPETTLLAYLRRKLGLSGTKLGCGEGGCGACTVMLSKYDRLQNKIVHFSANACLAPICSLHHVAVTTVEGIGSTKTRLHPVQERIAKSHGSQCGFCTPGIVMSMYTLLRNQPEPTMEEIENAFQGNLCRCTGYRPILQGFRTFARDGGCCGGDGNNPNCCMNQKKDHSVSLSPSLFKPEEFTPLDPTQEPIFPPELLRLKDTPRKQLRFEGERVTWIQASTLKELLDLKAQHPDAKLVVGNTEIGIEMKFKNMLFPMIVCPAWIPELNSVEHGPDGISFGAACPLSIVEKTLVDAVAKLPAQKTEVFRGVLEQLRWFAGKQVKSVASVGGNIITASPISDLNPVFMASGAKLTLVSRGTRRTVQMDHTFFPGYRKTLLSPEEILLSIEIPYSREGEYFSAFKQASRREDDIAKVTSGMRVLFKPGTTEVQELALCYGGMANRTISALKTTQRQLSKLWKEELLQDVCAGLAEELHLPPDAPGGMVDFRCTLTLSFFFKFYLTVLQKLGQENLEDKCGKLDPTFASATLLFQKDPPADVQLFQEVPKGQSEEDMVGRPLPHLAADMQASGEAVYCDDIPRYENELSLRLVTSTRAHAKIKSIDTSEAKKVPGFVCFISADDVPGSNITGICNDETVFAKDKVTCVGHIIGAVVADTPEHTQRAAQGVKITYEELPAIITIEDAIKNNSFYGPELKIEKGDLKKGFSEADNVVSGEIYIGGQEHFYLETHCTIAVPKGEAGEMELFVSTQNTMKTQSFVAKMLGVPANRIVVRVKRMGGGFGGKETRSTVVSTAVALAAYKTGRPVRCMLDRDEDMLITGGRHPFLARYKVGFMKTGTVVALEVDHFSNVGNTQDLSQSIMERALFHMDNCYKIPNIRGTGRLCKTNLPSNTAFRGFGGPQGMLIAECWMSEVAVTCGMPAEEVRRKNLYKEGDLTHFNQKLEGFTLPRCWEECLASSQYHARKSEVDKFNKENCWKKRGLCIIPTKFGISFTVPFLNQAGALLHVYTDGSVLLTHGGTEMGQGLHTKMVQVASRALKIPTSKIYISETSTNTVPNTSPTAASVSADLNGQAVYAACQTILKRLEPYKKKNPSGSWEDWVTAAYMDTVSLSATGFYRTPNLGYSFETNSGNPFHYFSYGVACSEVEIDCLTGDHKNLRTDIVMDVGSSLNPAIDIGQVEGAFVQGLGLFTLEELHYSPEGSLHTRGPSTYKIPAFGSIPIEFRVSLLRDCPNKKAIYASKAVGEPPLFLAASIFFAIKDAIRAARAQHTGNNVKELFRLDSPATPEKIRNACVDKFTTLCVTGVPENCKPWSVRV

1,4-dihydropyrazolo[4,3-d]pyrimidin-7-one [Allopurinol]
production of the metabolite oxypurinol by XO (xanthine oxidase; HPLC at A254): a peak consistent with the retention time of oxypurinol standard was detected
XO enzyme inhibition: production of uric acid (xanthine oxidase; HPLC at A280): did not reveal a peak corresponding to uric acid
50% lethal dose (LD50) (mice; given intraperitoneally): 160 mg/kg
50% lethal dose (LD50) (mice; given orally): 700 mg/kg
